Measurements reported in article PMC12040169 (PLOS Biology, 2025).

Test: in vitro
Conditions: human, hela cells, % viability

First: Cc1ccncc1C(=O)NCc1ccccc1 [CBK200193]
Second: O=C(NCc1ccccc1)c1cnccc1C(F)(F)F [CBK200194]
The viability at 28.5 h, 10 µM of the first is higher: 110% for the first, 92.3% for the second.

Compared with `Cn1c(C(=O)NCc2ccccc2)cc2ccccc21` [CBK200195], `Cn1cc(C(=O)NCc2ccccc2)c2ccccc21` [CBK200196] is lower in viability at 28.5 h, 10 µM: 81.7% for the first, 72.9% for the second.

First: O=C(NCc1ccccc1)c1ccno1 [CBK200197]
Second: Cn1cncc1C(=O)NCc1ccccc1 [CBK200199]
The viability at 28.5 h, 10 µM of the first is lower: 86.9% for the first, 96.9% for the second.

Going from `Cc1cc(C(=O)NCc2ccccc2)n[nH]1` [CBK200198] to `O=C(NCc1ccccc1)c1ccc2[nH]nnc2c1` [CBK200368], the viability at 28.5 h, 10 µM falls from 95.7% to 86.9%.

Compared with `Cn1cc(CC(=O)NCc2ccccc2)c2ccccc21` [CBK200200], `Cn1cc(C(=O)N2CCc3ccccc3C2)c2ccccc21` [CBK200338] is higher in viability at 28.5 h, 10 µM: 84.1% for the first, 90% for the second.

Compared with `O=C(c1ccccn1)N1CCN(CCc2ccccc2)CC1` [CBK200201], `O=C(c1cnccn1)N1CCN(CCc2ccccc2)CC1` [CBK200224] is higher in viability at 28.5 h, 10 µM: 99.1% for the first, 101% for the second.

Compared with `Cc1ncccc1COC(=O)N1c2ccccc2CCC1C` (stereo not drawn) [CBK200204], `O=C(Cc1ccccn1)N1CCCc2ccccc21` [CBK200343] is higher in viability at 28.5 h, 10 µM: 101% for the first, 105% for the second.

First: Cc1ccc(CNC(=O)OCCN2CCN(C)CC2)o1 [CBK200205]
Second: CN1CCN(CCOC(=O)N2CCSCC2)CC1 [CBK200288]
The viability at 28.5 h, 10 µM of the first is higher: 112% for the first, 94.7% for the second.

Compared with `CN1CCN(CCOC(=O)N2CCC(C(F)(F)F)CC2)CC1` [CBK200206], `CN1CCN(CCOC(=O)N2CCCC(C(F)(F)F)C2)CC1` (stereo not drawn) [CBK200207] is lower in viability at 28.5 h, 10 µM: 103% for the first, 87.2% for the second.

Compared with `CN1CCN(CCOC(=O)N2CCCC(F)(F)C2)CC1` [CBK200208], `O=C(OCCN1CCOCC1)N1CCN(c2ccccc2)CC1` [CBK200242] is lower in viability at 28.5 h, 10 µM: 105% for the first, 90.3% for the second.

First: O=C(c1ccc2nccnc2c1)N1CCN(c2ccccc2)CC1 [CBK200209]
Second: O=C(COc1cccnc1)N1CCN(c2ccccc2)CC1 [CBK200210]
The viability at 28.5 h, 10 µM of the first is lower: 92.9% for the first, 106% for the second.

Going from `CN1CCC(C(=O)N2CCN(c3ccccc3)CC2)CC1` [CBK200211] to `CN1CCC(C(=O)N2CCN(CCc3ccccc3)CC2)CC1` [CBK200216], the viability at 28.5 h, 10 µM rises from 93.5% to 103%.

Going from `Cc1cc2ncn(CC(=O)NCc3ccccc3)c2cc1C` [CBK200213] to `Cc1cc2ncn(CC(=O)Nc3c(C)noc3C)c2cc1C` [CBK200222], the viability at 28.5 h, 10 µM falls from 104% to 79.5%.

Going from `O=C(CN1CCOCC1)N1CCN(CCc2ccccc2)CC1` [CBK200215] to `O=C(c1csnn1)N1CCN(CCc2ccccc2)CC1` [CBK200228], the viability at 28.5 h, 10 µM rises from 91.4% to 96.6%.

First: O=C(NC1CCCC1)c1ccc2nccnc2c1 [CBK200217]
Second: O=C(NC1CCCC1)c1ccnc2ccccc12 [CBK200237]
The viability at 28.5 h, 10 µM of the first is higher: 102% for the first, 92.6% for the second.

Compared with `Cc1ccc(NC(=O)c2cnc3ccccc3n2)c(C)n1` [CBK200218], `Cc1ccc(NC(=O)c2cnc3ccccc3c2)c(C)n1` [CBK200290] is higher in viability at 28.5 h, 10 µM: 97.7% for the first, 99.1% for the second.

First: O=C(c1cncnc1)N1Cc2ccccc2C1 [CBK200223]
Second: O=C(c1cncnc1)N1CCc2ccccc21 [CBK200272]
The viability at 28.5 h, 10 µM of the first is higher: 106% for the first, 102% for the second.

First: CCOc1ccsc1C(=O)N1CCN(CCc2ccccc2)CC1 [CBK200229]
Second: O=C(c1cscn1)N1CCN(CCc2ccccc2)CC1 [CBK200230]
The viability at 28.5 h, 10 µM of the first is lower: 91.5% for the first, 106% for the second.

Going from `C[C@@H]1CN(C(=O)c2cn(C)c3ccccc23)C[C@H](C)O1` [CBK200235] to `C[C@@H]1CN(C(=O)c2cncn2C)C[C@H](C)O1` [CBK200370], the viability at 28.5 h, 10 µM rises from 88.9% to 90.3%.

Compared with `Cc1cc(C(=O)NC2CCCC2)n[nH]1` [CBK200240], `Cc1cc(C(=O)N2CCC(F)CC2)n[nH]1` [CBK200277] is higher in viability at 28.5 h, 10 µM: 94.2% for the first, 109% for the second.

Going from `CCN1CCN(C(=O)c2c[nH]c3ccccc23)CC1` [CBK200245] to `CCN1CCN(C(=O)c2cccc3[nH]ccc23)CC1` [CBK200246], the viability at 28.5 h, 10 µM rises from 103% to 110%.

Going from `CCOc1ccsc1C(=O)N1CCN(CC)CC1` [CBK200250] to `CCN1CCN(C(=O)c2cc(C)[nH]n2)CC1` [CBK200377], the viability at 28.5 h, 10 µM falls from 125% to 108%.

Compared with `CCN1CCN(C(=O)c2c(-c3ccccc3)noc2C)CC1` [CBK200251], `Cc1noc(C)c1NC(=O)c1c(-c2ccccc2)noc1C` [CBK200314] is lower in viability at 28.5 h, 10 µM: 96.5% for the first, 91.8% for the second.

First: CCN1CCN(C(=O)Cc2ccc(N(C)C)cc2)CC1 [CBK200253]
Second: CN(C)c1ccc(CC(=O)N2CCc3ccccc3C2)cc1 [CBK200340]
The viability at 28.5 h, 10 µM of the first is lower: 82.2% for the first, 93.7% for the second.

Going from `O=C(NC1Cc2ccccc2C1)c1cncnc1` [CBK200262] to `O=C(NC1Cc2ccccc2C1)c1cscn1` [CBK200363], the viability at 28.5 h, 10 µM falls from 119% to 93.5%.

First: O=C(c1cnc2ccccc2n1)N1CCC(F)CC1 [CBK200264]
Second: O=C(Cc1c[nH]c2ccccc12)N1CCC(F)CC1 [CBK200274]
The viability at 28.5 h, 10 µM of the first is lower: 93.4% for the first, 118% for the second.

Compared with `CN1CCN(c2ccc(C(=O)N3CCC(F)CC3)cc2)CC1` [CBK200265], `Cc1ncccc1C(=O)N1CCC(F)CC1` [CBK200398] is lower in viability at 28.5 h, 10 µM: 109% for the first, 85.4% for the second.

Compared with `Cc1cc2ncn(CC(=O)N3CCC(F)CC3)c2cc1C` [CBK200266], `O=C(CCc1cccnc1)N1CCC(F)CC1` [CBK200275] is lower in viability at 28.5 h, 10 µM: 104% for the first, 103% for the second.

Compared with `O=C(c1cccnc1)N1CCc2ccccc21` [CBK200279], `O=C(c1ccc[nH]1)N1CCc2ccccc21` [CBK200285] is lower in viability at 28.5 h, 10 µM: 121% for the first, 72.6% for the second.

First: O=C(c1ccnc2ccccc12)N1CCc2ccccc21 [CBK200283]
Second: O=C(c1c[nH]c2ccccc12)N1CCc2ccccc2C1 [CBK200331]
The viability at 28.5 h, 10 µM of the first is lower: 103% for the first, 113% for the second.

First: Cc1ccc(C(=O)Nc2ccc(C)nc2C)cn1 [CBK200289]
Second: Cc1ccc(NC(=O)c2cncnc2)c(C)n1 [CBK200380]
The viability at 28.5 h, 10 µM of the first is higher: 89.6% for the first, 81.1% for the second.

Going from `Cc1ccc(NC(=O)Cc2ccc(N(C)C)cc2)c(C)n1` [CBK200295] to `Cc1ccc(NC(=O)Cc2ccncc2)c(C)n1` [CBK200385], the viability at 28.5 h, 10 µM falls from 104% to 90%.

First: Cc1ccc(NC(=O)c2nc3ccccc3[nH]2)c(C)n1 [CBK200296]
Second: O=C(NC1Cc2ccccc2C1)c1nc2ccccc2[nH]1 [CBK200361]
The viability at 28.5 h, 10 µM of the first is lower: 94.4% for the first, 102% for the second.

Compared with `Cc1noc(C)c1NC(=O)c1ccccn1` [CBK200299], `Cc1noc(C)c1NC(=O)c1cscn1` [CBK200397] is lower in viability at 28.5 h, 10 µM: 95.6% for the first, 95.2% for the second.

Going from `COc1ccc(C(=O)Nc2c(C)noc2C)c(OC)n1` [CBK200300] to `COc1ncccc1C(=O)Nc1c(C)noc1C` [CBK200307], the viability at 28.5 h, 10 µM falls from 104% to 103%.

First: Cc1noc(C)c1NC(=O)c1n[nH]c2ccccc12 [CBK200301]
Second: Cc1noc(C)c1NC(=O)c1nccc2ccccc12 [CBK200310]
The viability at 28.5 h, 10 µM of the first is higher: 104% for the first, 93.3% for the second.

Compared with `Cc1noc(C)c1NC(=O)c1cccn1C` [CBK200304], `Cc1noc(C)c1NC(=O)c1cc2ccccc2n1C` [CBK200311] is higher in viability at 28.5 h, 10 µM: 101% for the first, 108% for the second.

First: Cc1noc(C)c1NC(=O)c1c(C)noc1C [CBK200305]
Second: Cc1nc(C)c(C(=O)Nc2c(C)noc2C)s1 [CBK200313]
The viability at 28.5 h, 10 µM of the first is lower: 96.4% for the first, 105% for the second.

Compared with `Cc1noc(C)c1NC(=O)c1cnccc1C(F)(F)F` [CBK200306], `Cc1noc(C)c1NC(=O)c1ccncc1` [CBK200389] is lower in viability at 28.5 h, 10 µM: 99.1% for the first, 89.9% for the second.

First: Cc1noc(C)c1NC(=O)c1ccc2ncccc2c1 [CBK200308]
Second: Cc1noc(C)c1NC(=O)c1cn(C)c2ccccc12 [CBK200312]
The viability at 28.5 h, 10 µM of the first is higher: 104% for the first, 87.3% for the second.

Compared with `COc1ccc(C(=O)N2Cc3ccccc3C2)c(OC)n1` [CBK200317], `O=C(c1n[nH]c2ccccc12)N1CCc2ccccc2C1` [CBK200330] is lower in viability at 28.5 h, 10 µM: 103% for the first, 94.4% for the second.

Compared with `O=C(c1nc2ccccc2[nH]1)N1CCc2ccccc2C1` [CBK200341], `O=C(c1cscn1)N1CCc2ccccc2C1` [CBK200342] is lower in viability at 28.5 h, 10 µM: 100% for the first, 96.6% for the second.

Going from `O=C(CCc1cccnc1)N1CCCc2ccccc21` [CBK200344] to `O=C(CCc1cccnc1)NC1Cc2ccccc2C1` [CBK200352], the viability at 28.5 h, 10 µM falls from 100% to 97.4%.

First: Cc1nc(C)c(C(=O)N2CCCc3ccccc32)s1 [CBK200345]
Second: Cc1nc(C)c(C(=O)NC2Cc3ccccc3C2)s1 [CBK200357]
The viability at 28.5 h, 10 µM of the first is higher: 112% for the first, 91.2% for the second.

First: CN(C)c1ccc(CC(=O)N2CCCc3ccccc32)cc1 [CBK200347]
Second: O=C(NC1Cc2ccccc2C1)c1ccc2ncccc2c1 [CBK200354]
The viability at 28.5 h, 10 µM of the first is lower: 83.6% for the first, 96.2% for the second.

Compared with `Cc1noc(C)c1C(=O)NC1Cc2ccccc2C1` [CBK200350], `O=C(NC1Cc2ccccc2C1)c1ccc2ccccc2n1` [CBK200355] is lower in viability at 28.5 h, 10 µM: 91.4% for the first, 81.8% for the second.

Compared with `O=C(NC1Cc2ccccc2C1)c1cnccc1C(F)(F)F` [CBK200353], `O=C(CCN1CCCCC1)NC1Cc2ccccc2C1` [CBK200364] is lower in viability at 28.5 h, 10 µM: 98.6% for the first, 98.3% for the second.

Compared with `C[C@@H]1CN(C(=O)c2cscn2)C[C@H](C)O1` [CBK200371], `CCN1CCN(C(=O)c2cnccn2)CC1` [CBK200373] is lower in viability at 28.5 h, 10 µM: 90% for the first, 81.6% for the second.

Going from `O=C(Cn1cnnn1)NC1CCCC1` [CBK200372] to `CCN1CCN(C(=O)c2csnn2)CC1` [CBK200376], the viability at 28.5 h, 10 µM falls from 94.9% to 92.5%.

Compared with `CCN1CCN(C(=O)COc2cccnc2)CC1` [CBK200378], `COCCC(=O)N1CCC(F)CC1` [CBK200399] is higher in viability at 28.5 h, 10 µM: 94.8% for the first, 99.1% for the second.

Going from `Cc1noc(C)c1NC(=O)CN1CCOCC1` [CBK200381] to `Cc1noc(C)c1NC(=O)CCc1cccnc1` [CBK200392], the viability at 28.5 h, 10 µM falls from 103% to 99.6%.

First: Cc1ccc(NC(=O)CCc2cccnc2)c(C)n1 [CBK200386]
Second: Cc1ccc(NC(=O)CN(C)C)c(C)n1 [CBK200388]
The viability at 28.5 h, 10 µM of the first is higher: 101% for the first, 99.6% for the second.

`Cc1cc(C(=O)Nc2c(C)noc2C)n[nH]1` [CBK200395] showed a viability at 28.5 h, 10 µM of 87.4%.
